Measurements from patent US20180099931A1 (AbbVie S.à.r.l., priority 2016, published 2018).
Where two headings read alike, the source gives them in different places.

Biological target: T1, F508delCFTR (Homo sapiens, UniProt P13569, DEL508-508)
T1 construct: expressed in transfected cells; host or cells: CFBE41o- human lung-derived epithelial cells (CFBE4lo-F508delCFTR-HRP), doxycycline-inducible
Assay: Cell Surface Expression-Horse Radish Peroxidase (CSE-HRP) Assay;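 for Maximum % activity (with co-corrector): co-corrector and positive control are both the same reference corrector at 2 µM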;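 for Maximum % activity (without co-corrector): percent of the 2 µM on-plate positive control corrector response above DMSO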
Type: cell-based
Conditions: for Maximum % activity (with co-corrector) / Emax: maximum at any tested concentration, normalized to on-plate positive control; for Emax: read-out: Maximum % activity (without co-corrector)

[1] = CSE-HRP, test compound without co-corrector, read-out: EC50 (without co-corrector)
[2] = CSE-HRP, with co-corrector (2 μM of 3-[(2R,4R)-4-({[1-(2,2-difluoro-1,3-benzodioxol-5-yl)cyclopropyl]carbonyl}amino)-7-methoxy-3,4-dihydro-2H-chromen-2-yl]benzoic acid), read-out: EC50 (with co-corrector)
[3] = CSE-HRP, with co-corrector (2 μM)
[4] = test compound without co-corrector, read-out: EC50 (without co-corrector)
[5] = with co-corrector (2 μM of 3-[(2R,4R)-4-({[1-(2,2-difluoro-1,3-benzodioxol-5-yl)cyclopropyl]carbonyl}amino)-7-methoxy-3,4-dihydro-2H-chromen-2-yl]benzoic acid), read-out: EC50 (with co-corrector)
[6] = test compound without co-corrector
[7] = with co-corrector (2 μM of 3-[(2R,4R)-4-({[1-(2,2-difluoro-1,3-benzodioxol-5-yl)cyclopropyl]carbonyl}amino)-7-methoxy-3,4-dihydro-2H-chromen-2-yl]benzoic acid)

T1 sequence (P13569 with tags, fused parts or gaps DEL508-508): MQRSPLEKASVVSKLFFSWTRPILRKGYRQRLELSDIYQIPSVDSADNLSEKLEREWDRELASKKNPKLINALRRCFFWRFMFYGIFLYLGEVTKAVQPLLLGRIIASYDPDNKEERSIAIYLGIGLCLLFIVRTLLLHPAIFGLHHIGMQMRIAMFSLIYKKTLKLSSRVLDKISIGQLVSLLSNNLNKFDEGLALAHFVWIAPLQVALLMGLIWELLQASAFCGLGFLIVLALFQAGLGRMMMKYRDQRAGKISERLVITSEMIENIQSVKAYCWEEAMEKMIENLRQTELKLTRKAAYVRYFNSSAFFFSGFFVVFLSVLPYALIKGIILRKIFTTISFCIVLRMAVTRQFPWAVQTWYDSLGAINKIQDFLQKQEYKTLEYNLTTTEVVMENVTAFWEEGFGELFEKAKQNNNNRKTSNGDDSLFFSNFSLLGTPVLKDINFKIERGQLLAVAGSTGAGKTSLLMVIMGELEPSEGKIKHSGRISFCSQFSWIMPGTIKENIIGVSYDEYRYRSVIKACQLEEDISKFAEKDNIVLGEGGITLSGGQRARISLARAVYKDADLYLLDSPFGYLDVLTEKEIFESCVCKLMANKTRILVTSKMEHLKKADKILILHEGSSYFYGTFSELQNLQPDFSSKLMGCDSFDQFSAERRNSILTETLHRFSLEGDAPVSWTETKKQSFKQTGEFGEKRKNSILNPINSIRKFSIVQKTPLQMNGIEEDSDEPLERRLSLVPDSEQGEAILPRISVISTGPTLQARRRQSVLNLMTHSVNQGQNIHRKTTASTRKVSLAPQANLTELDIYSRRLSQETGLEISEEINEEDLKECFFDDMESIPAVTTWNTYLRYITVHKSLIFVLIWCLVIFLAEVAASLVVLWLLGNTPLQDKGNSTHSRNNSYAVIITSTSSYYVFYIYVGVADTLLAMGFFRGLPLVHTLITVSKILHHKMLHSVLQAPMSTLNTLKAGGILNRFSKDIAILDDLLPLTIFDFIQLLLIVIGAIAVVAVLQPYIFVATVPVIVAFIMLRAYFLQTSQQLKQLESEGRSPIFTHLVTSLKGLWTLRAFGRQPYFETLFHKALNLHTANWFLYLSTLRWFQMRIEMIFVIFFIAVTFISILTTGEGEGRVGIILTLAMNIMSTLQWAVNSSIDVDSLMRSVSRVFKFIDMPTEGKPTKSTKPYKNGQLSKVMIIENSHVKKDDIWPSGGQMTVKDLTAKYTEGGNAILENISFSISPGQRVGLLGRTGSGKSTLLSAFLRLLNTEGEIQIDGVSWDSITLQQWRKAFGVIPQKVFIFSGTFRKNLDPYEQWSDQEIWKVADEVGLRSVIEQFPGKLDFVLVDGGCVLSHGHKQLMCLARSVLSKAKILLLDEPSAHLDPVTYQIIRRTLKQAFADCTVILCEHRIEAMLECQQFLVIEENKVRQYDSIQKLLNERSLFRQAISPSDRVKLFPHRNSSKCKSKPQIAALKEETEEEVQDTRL

EC50 [1] [nM] | EC50 [2] [nM] | Maximum % activity (with co-corrector) [3] | Emax (CSE-HRP, without co-corrector) [%] | EC50 [4] [nM] | EC50 [5] [nM] | Maximum % activity (with co-corrector) (with co-corrector (2 μM)) | Emax (without co-corrector) [%] | Emax [6] [%] | Maximum % activity (with co-corrector) [7] | SMILES
1000 to 10000 | 1000 to 10000 | +++ (≥350) | > 200 | – | – | – | – | – | – | COc1cc(Cl)ccc1CN[C@@H]1[C@@H](C(C)(C)C)[C@H](C(=O)O)N(C(=O)OC(C)C)[C@@H]1c1cccnc1N(C)C (racemic) [II-29]
– | – | – | – | 1000 to 10000 | 1000 to 10000 | +++ (≥350) | 100 to 200 | – | – | COc1ccc(C(C)(C)C)cc1CN[C@H]1[C@H](C(C)(C)C)[C@@H](C(=O)O)N(C(=O)C2CCCCC2)[C@H]1c1cccnc1OC(F)F [Example I-225]
– | – | – | – | < 1000 | < 1000 | – | – | > 200 | +++ (≥350) | COc1ccc(C(C)(C)C)cc1CN[C@H]1[C@H](C(C)(C)C)[C@@H](C(=O)O)N(C(=O)C2CCCCC2)[C@H]1c1ccccc1C [II-576]
> 10000 | 1000 to 10000 | ++ (≥150 and <350) | < 100 | – | – | – | – | – | – | COc1ccc(C(F)(F)F)cc1CN[C@@H]1[C@@H](C(C)(C)C)[C@H](C(=O)O)N(C(=O)[C@@H](OC)c2ccccc2)[C@@H]1c1ccccc1 [II-64]
– | – | – | – | 1000 to 10000 | 1000 to 10000 | – | – | > 200 | +++ (≥350) | COc1ccc(C(C)(C)C)cc1CN[C@H]1[C@H](C(C)(C)C)[C@@H](C(=O)O)N(C(=O)CC(C)(O)C(C)C)[C@H]1c1ccccc1 (stereo partly drawn) [II-372]
< 1000 | < 1000 | +++ (≥350) | > 200 | – | – | – | – | – | – | COc1ccc(C2CCC2)cc1CN[C@H]1[C@H](C(C)(C)OC)[C@@H](C(=O)O)N(C(=O)C2CCCCC2)[C@H]1c1ccccc1 [II-255]
– | – | – | – | 1000 to 10000 | 1000 to 10000 | – | – | 100 to 200 | +++ (≥350) | COc1ccc(C(C)(C)C)cc1CN[C@H]1[C@H](C(C)(C)C)[C@@H](C(=O)O)N(C(=O)C2CC2(F)F)[C@H]1c1ccccc1 (stereo partly drawn) [II-327]
– | – | – | – | 1000 to 10000 | 1000 to 10000 | +++ (≥350) | < 100 | – | – | CC(C)(C)[C@@H]1[C@@H](Nc2cccc(OC(F)F)n2)[C@@H](c2ccccc2)N(C(=O)C2CCCCC2)[C@H]1C(=O)O (racemic) [Example I-21]
– | – | – | – | 1000 to 10000 | 1000 to 10000 | – | – | 100 to 200 | +++ (≥350) | COc1cnc(-c2ccccc2F)cc1CN[C@H]1[C@H](C(C)(C)C)[C@@H](C(=O)O)N(C(=O)C2CCCCC2)[C@H]1c1ccccc1 [II-417]
< 1000 | < 1000 | +++ (≥350) | 100 to 200 | – | – | – | – | – | – | COc1ccc(C(C)(C)C)cc1CN[C@H]1[C@H](C(C)(C)C)[C@@H](C(=O)O)N(C(=O)Cc2ccc(C)cc2)[C@H]1c1ccccc1 [II-204]
– | – | – | – | < 1000 | < 1000 | +++ (≥350) | > 200 | – | – | COc1ccc(C(C)(C)C)cc1CN[C@H]1[C@H](C(C)(C)C)[C@@H](C(=O)O)N(C(=O)OC(C)C)[C@H]1c1ccccc1C(C)C [Example 61, (2S,3S,4S,5S)-3-tert-butyl-4-{[(5-tert-butyl-2-methoxyphenyl)methyl]amino}-1-{[(propan-2-yl)oxy]carbonyl}-5-[2-(propan-2-yl)phenyl]pyrrolidine-2-carboxylic acid]
– | – | – | – | 1000 to 10000 | 1000 to 10000 | +++ (≥350) | 100 to 200 | – | – | COc1ncc(C(F)(F)F)cc1CN[C@H]1[C@H](C(C)(C)C)[C@@H](C(=O)O)N(C(=O)[C@@H]2CCCCO2)[C@H]1c1ccccc1 [Example 21, (2S,3S,4S,5S)-3-tert-butyl-4-({[2-methoxy-5-(trifluoromethyl)pyridin-3-yl]methyl}amino)-1-[(2S)-oxane-2-carbonyl]-5-phenylpyrrolidine-2-carboxylic acid]
1000 to 10000 | < 1000 | +++ (≥350) | 100 to 200 | – | – | – | – | – | – | COc1ccc(C(C)(C)C)cc1CN[C@H]1[C@H](C(C)(C)C)[C@@H](C(=O)O)N(C(=O)c2cccc3c2OCC3)[C@H]1c1ccccc1 [II-222]
– | – | – | – | < 1000 | < 1000 | +++ (≥350) | 100 to 200 | – | – | COc1ncc(Cc2ccccc2)cc1CN[C@H]1[C@H](C(C)(C)C)[C@@H](C(=O)O)N(C(=O)C2CCCCC2)[C@H]1c1ccccc1 [Example I-69]
1000 to 10000 | 1000 to 10000 | +++ (≥350) | > 200 | – | – | – | – | – | – | COc1ccc(C(C)(C)C)cc1CN[C@H]1[C@H](C(C)(C)C)[C@@H](C(=O)O)N(C(=O)[C@H]2OCC[C@H]2C)[C@H]1c1ccccc1 (relative stereo) [II-269]
– | – | – | – | > 10000 | > 10000 | + (<150) | – | < 100 | – | CC(C)(C)[C@H]1[C@H](Nc2ccc(Cn3ccccc3=O)cn2)[C@H](c2ccccc2)N(C(=O)C2CCCCC2)[C@@H]1C(=O)O [III-153]
– | – | – | – | < 1000 | < 1000 | – | – | 100 to 200 | +++ (≥350) | COc1nc(C(C)(C)C)ccc1CN[C@H]1[C@H](C(C)(C)C)[C@@H](C(=O)O)N(C(=O)Cc2ccccc2C)[C@H]1c1ccccc1 [II-429]
– | – | – | – | > 10000 | 1000 to 10000 | ++ (≥150 and <350) | < 100 | – | – | CO[C@H](C(=O)N1[C@H](c2ccccc2)[C@H](Nc2cc(C(F)(F)F)cc(C)n2)[C@@H](C(C)(C)C)[C@@H]1C(=O)O)c1ccccc1 (relative stereo) [Example I-33]
< 1000 | < 1000 | +++ (≥350) | > 200 | – | – | – | – | – | – | COc1ccc(-c2ccc(F)cc2C)cc1CN[C@H]1[C@H](C(C)(C)C)[C@@H](C(=O)O)N(C(=O)C2CCCCC2)[C@H]1c1ccccc1 [II-282]
– | – | – | – | 1000 to 10000 | 1000 to 10000 | ++ (≥150 and <350) | – | < 100 | – | CC(C)(C)[C@H]1[C@H](NCc2cc3c(cc2Cl)OCO3)[C@H](c2ccccc2)N(C(=O)C2CCCCC2)[C@@H]1C(=O)O [III-142]
– | – | – | – | 1000 to 10000 | 1000 to 10000 | – | – | 100 to 200 | +++ (≥350) | COc1ccc(-c2ccccc2)cc1CN[C@H]1[C@H](C(C)(C)C)[C@@H](C(=O)O)N(C(=O)[C@H]2CCCCO2)[C@H]1c1cccnc1N(C)C [II-447]
1000 to 10000 | 1000 to 10000 | +++ (≥350) | < 100 | – | – | – | – | – | – | COc1ccccc1[C@@H]1[C@H](NCc2cc(C(F)(F)F)cnc2Cl)[C@@H](C(C)(C)C)[C@H](C(=O)O)N1C(=O)C1CCCCC1 (racemic) [II-16]
1000 to 10000 | < 1000 | +++ (≥350) | 100 to 200 | – | – | – | – | – | – | COc1ncc(C(F)(F)F)cc1CN[C@H]1[C@H](C(C)(C)C)[C@@H](C(=O)O)N(C(=O)[C@@H]2CCCCO2)[C@H]1c1ccccc1Br [Example I-288]
– | – | – | – | 1000 to 10000 | 1000 to 10000 | – | – | 100 to 200 | +++ (≥350) | COc1ccc(C(C)(C)C)cc1CN[C@H]1[C@H](C(C)(C)C)[C@@H](C(=O)O)N(C(=O)[C@@H]2CCC[C@](C)(O)C2)[C@H]1c1ccccc1 [II-526]
– | – | – | – | 1000 to 10000 | 1000 to 10000 | – | – | > 200 | +++ (≥350) | COc1ccc(C(C)(C)C)cc1CN[C@H]1[C@H](C(C)(C)C)[C@@H](C(=O)O)N(C(=O)[C@@H](C)[C@H]2CCCCO2)[C@H]1c1ccccc1 (relative stereo) [II-455]
– | – | – | – | 1000 to 10000 | < 1000 | +++ (≥350) | > 200 | – | – | COc1ncc(C2CCC2)cc1CN[C@H]1[C@H](C(C)(C)C)[C@@H](C(=O)O)N(C(=O)[C@@H]2CCCO2)[C@H]1c1ccccc1C1CC1 [Example 107, (2S,3S,4S,5S)-3-tert-butyl-4-{[(5-cyclobutyl-2-methoxypyridin-3-yl)methyl]amino}-5-(2-cyclopropylphenyl)-1-[(2S)-oxolane-2-carbonyl]pyrrolidine-2-carboxylic acid]
– | – | – | – | 1000 to 10000 | 1000 to 10000 | – | – | < 100 | ++ (≥150 and <350) | O=C(O)[C@H]1[C@H](C2CC2)[C@@H](Nc2cc(C(F)(F)F)ccn2)[C@@H](c2ccccc2)N1C(=O)C1CCCCC1 (racemic) [III-33]
– | – | – | – | > 10000 | 1000 to 10000 | ++ (≥150 and <350) | – | < 100 | – | COc1cc(C(F)(F)F)ccc1CN[C@@H]1[C@@H](C(C)(C)C)[C@H](C(=O)O)N(C(=O)C2CCCCC2)[C@@H]1c1ccccc1OC [III-95]
1000 to 10000 | 1000 to 10000 | +++ (≥350) | 100 to 200 | – | – | – | – | – | – | COc1cc(C(F)(F)F)ccc1CN[C@H]1[C@H](C(C)(C)C)[C@@H](C(=O)O)N(C(=O)[C@@H]2CCCCO2)[C@H]1c1cccnc1OC [II-92]
1000 to 10000 | 1000 to 10000 | +++ (≥350) | < 100 | – | – | – | – | – | – | CC(C)OC(=O)N1[C@H](C(=O)O)[C@@H](C(C)(C)C)[C@H](NCC2CCCN(c3ccc(C(F)(F)F)cc3)C2)[C@@H]1c1ccccc1 (stereo partly drawn) [Example I-268]
